Assay results from patent US6100283A, “Benzimidazole compounds” (Newcastle University Ventures Limited, priority 1995, dated 2000).
Several values for one entry are separate records, joined by “and”; a condition that tells them apart may be missing. Identical values can stand only once. Like-named read-outs stand apart in the source and are kept apart here.

How the values were obtained:
PARP = target: T1, PARP (Mus musculus, UniProt P11103); test: PARP enzyme inhibition assay ([32P]-NAD+ incorporation into TCA-precipitated poly(ADP-ribose), oligonucleotide-activated, permeabilised L1210 cells); format: biochemical, murine (L1210 leukaemia cells); details: for IC50: permeabilised L1210 cells, 26° C., 5 minutes
T1 construct: endogenous in cells; host or cells: L1210 murine leukaemia cells, permeabilised by hypotonic buffer and cold shock
Source text: The poly(ADP-ribose) which is then synthesised by the enzyme can be precipitated by tri-chloracetic acid (TCA) and the amount of radio-labelled ^32 p incorporated therein measured, e.g. using a scintillation counter, to give a measure of the activity of the PARP under the particular conditions of the experiment. By repeating the experiment following the same procedure, and under the same conditions, in the presence of each compound to be tested the reduction in enzyme activity, representative of the inhibitory effect of the test compound, can then be ascertained from the reduction, if any, of the amount of [^32 p] measured in the TCA precipitated poly(ADP-ribose).
Thus, with a range of different compounds a set of comparative values for inhibitory activity can be obtained.
In practice, L1210 murine leukaemia cells have been used as a source of the PARP enzyme after being rendered permeable to exogenous [^32 P]NAD by exposure to hypotonic buffer and cold shock. […] This oligonucleotide sequence snaps back on itself to form a double-stranded molecule with a single blunt end and provides an effective substrate for activation of PARP.
The experimental protocol adopted, in which a synthetic oligonucleotide as mentioned above is introduced as a specific activator of PARP, discriminates between PARP and other mono-ADP-ribosyltransferases in the cells.
The oligonucleotide having the palindromic sequence […], synthesised by conventional means, was vacuum dried and stored as pellets in a freezer. Before use, it was made up to 200 μg/ml in 10 mM Tris/HCl, pH 7.8, with each pellet being dissolved completely in […] of buffer. The solution was then heated to 60° C. in a water bath for 15 minutes, and allowed to cool slowly to ensure correct reannealing. After adding 9.5 ml of buffer, the concentration was checked by measuring the optical density of a diluted sample at 260 nm. The main solution was then diluted to a concentration of 200 μg/ml and stored in 500 μl aliquots in a freezer, ready for use.
The L1210 cells used as the source of the PARP enzyme were maintained as a suspension culture in RPMI medium+10% foetal bovine serum+glutamine and antibiotics (penicillin and streptomycin). HEPES and sodium bicarbonate were also added, and the cells were seeded in 100 ml-200 ml of medium such that there would be a concentration of approximately 8×10^5 /ml at the time of carrying out an assay.
The solubility of the compound was then checked by adding a quantity of the DMSO solution to a quantity of the isotonic buffer, in the required final proportions that were to be used in carrying out the assay, and after an interval the solution was examined under a microscope for any signs of crystals forming.
A desired quantity of the cells, ascertained by counting with a haemocytometer, was then centrifuged (1500 rpm in a "Europa" model 24M centrifuge for 5 minutes), the supernatant removed, and the pellets obtained were resuspended in 20 ml Ca^++ Mg^++ free phosphate buffered saline (Dulbeco's modification A, abbreviated Dul A) at 4° C. before centrifuging again at 1500 rpm and 4° C. After again removing the supernatant, the cells were resuspended at a concentration of 3×10^7 cells/ml in ice cold hypotonic buffer and left for 30 minutes on ice. Nine volumes were then added of ice cold isotonic buffer, and the cells, now rendered permeable to exogenous NAD^+, were then used within the next hour for carrying out an assay. The permeablisation of the cells may be checked at this stage by adding duplicate aliquots of cells to an equal volume of trypan blue, leaving for 5 minutes and then counting on a haemocytometer. Those rendered permeable will take up the Trypan blue and appear coloured.

[1] = test system: L1210 murine leukaemia cells; test: in vitro cytotoxicity assay (colony formation, L1210 cells, NU1064 with or without temozolomide); format: cell-based; details: for relative plating efficiency, NU1064 with temozolomide: 24 hours, normalised to temozolomide alone = 100%
Experimental: Again using cultures of the murine leukaemia L1210 cell line, growth inhibition experiments were carried out to assess the cytostatic effects of the compounds and clonogenic survival assays were performed to assess cytotoxicity, especially in relation to use of the compounds in conjunction with DNA damaging cytotoxic agents such as cytotoxic antitumour drugs or gamma irradiation. […] After 1 week colonies of viable cells were stained with MTT (1 ml 0.5 mg/ml) and counted.

[2] = read-out: IC50 value (PARP inhibition)

T1 sequence (P11103 whole entry): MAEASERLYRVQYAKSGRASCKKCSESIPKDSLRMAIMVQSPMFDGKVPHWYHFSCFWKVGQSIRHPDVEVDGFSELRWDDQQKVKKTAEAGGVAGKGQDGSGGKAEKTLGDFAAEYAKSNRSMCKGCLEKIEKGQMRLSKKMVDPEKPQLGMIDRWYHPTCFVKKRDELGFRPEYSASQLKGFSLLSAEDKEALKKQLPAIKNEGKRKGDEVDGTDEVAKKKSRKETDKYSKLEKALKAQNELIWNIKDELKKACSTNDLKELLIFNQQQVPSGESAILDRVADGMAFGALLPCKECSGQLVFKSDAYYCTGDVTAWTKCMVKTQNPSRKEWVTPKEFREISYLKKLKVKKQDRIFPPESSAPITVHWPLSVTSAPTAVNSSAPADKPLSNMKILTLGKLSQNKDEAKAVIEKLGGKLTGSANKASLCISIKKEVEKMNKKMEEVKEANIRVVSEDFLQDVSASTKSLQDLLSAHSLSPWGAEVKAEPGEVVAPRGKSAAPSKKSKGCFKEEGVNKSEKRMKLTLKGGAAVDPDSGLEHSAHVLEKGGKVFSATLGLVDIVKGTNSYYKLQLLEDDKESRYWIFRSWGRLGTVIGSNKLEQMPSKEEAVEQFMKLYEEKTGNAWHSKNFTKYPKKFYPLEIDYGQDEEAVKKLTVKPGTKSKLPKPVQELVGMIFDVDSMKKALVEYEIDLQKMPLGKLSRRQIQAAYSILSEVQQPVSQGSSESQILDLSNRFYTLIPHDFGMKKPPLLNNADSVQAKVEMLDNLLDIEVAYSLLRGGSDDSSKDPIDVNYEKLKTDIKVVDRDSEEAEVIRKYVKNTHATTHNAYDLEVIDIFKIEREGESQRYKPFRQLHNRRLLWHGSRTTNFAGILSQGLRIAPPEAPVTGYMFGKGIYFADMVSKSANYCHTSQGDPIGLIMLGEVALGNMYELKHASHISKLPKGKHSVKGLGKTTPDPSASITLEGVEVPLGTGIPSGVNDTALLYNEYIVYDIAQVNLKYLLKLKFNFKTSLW

| IC50 (PARP; [2]) [µM] | Compound | other results |
| --- | --- | --- |
| 8 ± 3.5 | NC(=O)c1cccc(O)c1 [3-hydroxybenzamide, reference compound] | – |
| 1.09 ± 0.23 | Cc1nc2c(C(N)=O)cccc2[nH]1 [NU1064, 2-methylbenzimidazole-4-carboxamide] | relative plating efficiency, NU1064 with temozolomide ([1]; 100 μM NU1064 + 100 μM temozolomide): 28%; relative plating efficiency, NU1064 with temozolomide ([1]; 200 μM NU1064 + 100 μM temozolomide): 2%; viability at 100 µM ([1]; Mus musculus, L1210, 100 μM NU1064, 24 hours, normalised to control = 100%, read-out: relative plating efficiency, NU1064 alone): 72%; viability at 200 µM ([1]; Mus musculus, L1210, 200 μM NU1064, 24 hours, normalised to control = 100%, read-out: relative plating efficiency, NU1064 alone): 54%; potentiation of temozolomide cytotoxicity (in words) ([1]; increasing concentrations of NU1064 + 100 μM temozolomide): very marked increase in temozolomide cytotoxicity |
| – | NC(=O)c1cccc2[nH]cnc12 [NU1066, benzimidazole-4-carboxamide] | IC50 (PARP; IC50 value (PARP inhibition)): 1.26 µM and 1.02 µM |
| – | O=C(O)c1cccc2nc[nH]c12 [NU1067, benzimidazole-4-carboxylic acid] | % Inhibition at 10 μM or IC50 value (result in words) (PARP; result in words in table): Inactive |
| 0.059 | COc1ccc(-c2nc3c(C(N)=O)cccc3[nH]2)cc1 [NU1076, 2-(4'-methoxyphenyl)benzimidazole-4-carboxamide] | – |
| – | NC(=O)c1cccc2nc(-c3ccc(O)cc3)[nH]c12 [NU1085, 2-(4'-Hydroxyphenyl)-1-H-benzimidazole-4-carboxamide] | IC50 (PARP; IC50 value (PARP inhibition)): 0.077 µM |
| 1.6 | NC(=O)c1cccc2[nH]c(C(F)(F)F)nc12 [NU1086, 2-trifluoromethylbenzimidazole-4-carboxamide] | – |
| ~0.1 | COc1ccc(-c2nc3c(C(N)=O)cccc3n2C)cc1 [NU1090, 2-(4'-Methoxyphenyl)-1-methylbenzimidazole-4-carboxamide] | – |
| 0.022 | NC(=O)c1cccc2[nH]c(-c3ccc([N+](=O)[O-])cc3)nc12 [NU1091, 2-(4'-Nitrophenyl)-1-H-benzimidazole-4-carboxamide] | PARP inhibitory activity (in words) (PARP): exceptionally high inhibitory activities |
| 0.033 | N#Cc1ccc(-c2nc3c(C(N)=O)cccc3[nH]2)cc1 [NU1092, 2-(4'-Cyanophenyl)-1-H-benzimidazole-4-carboxamide] | PARP inhibitory activity (in words) (PARP): exceptionally high inhibitory activities |
| 0.076 | NC(=O)c1cccc2[nH]c(-c3cccc(C(F)(F)F)c3)nc12 [NU1093, 2-(3'-Trifluoromethylphenyl)-1-H-benzimidazole-4-carboxamide] | – |
| 0.13 | COc1cccc(-c2nc3c(C(N)=O)cccc3[nH]2)c1 [NU1098, 2-(3'-Methoxyphenyl)-1-H-benzimidazole-4-carboxamide] | – |
| 0.27 | COc1ccc(-c2nc3c(C(N)=O)cccc3n2C(=O)c2ccccc2)cc1 [NU1101, 2-(4'-Methoxyphenyl)-1-benzoylbenzimidazole-4-carboxamide] | – |
| 0.091 | NC(=O)c1cccc2nc(-c3ccc(N)cc3)[nH]c12 [NU1103, 2-(4'-aminophenyl)benzimidazole-4-carboxamide] | – |
| 12.4 ± 3.1 | NC(=O)c1ccccc1 [benzamide, reference compound] | – |
| – | Cn1nnc2c(C(N)=O)ncn2c1=O [temozolomide, reference compound] | plating efficiency ([1]; 100 μM temozolomide alone, 24 hours (control 89%)): 32% |
| – | CGGAATTCCG: single strand oligonucleotide having the palindromic sequence CGGAATTCCG, activator of PARP (chemistry not given here) [reference compound] | activation of PARP by oligonucleotide (in words) (PARP): potent activator of the enzyme |
